Results taken from article PMC11088877, “AMP-activated protein kinase can be allosterically activated by ADP but AMP remains the key activating ligand” (Biochemical Journal, 2024).
Where “and” joins values, the source holds several entries; their conditions need not be identical. Equal values may be shown once.

Molecular target: T1, human α2β2γ1 complex, CBS4 mutant (I312G) (Homo sapiens, UniProt P54619+P54646, I312G)
T1 construct: made in house; host or cells: Escherichia coli
Assay: Allosteric activation of CBS4 mutant human α2β2γ1 AMPK complex
Format: biochemical
Details: for Activation (maximal) / EC50 / IC50 / IC50/EC50: α2β2γ1 CBS4 mutant
Description: To study allosteric activation with a more well-defined AMPK complex, and to study the effects of mutations in individual adenine nucleotide-binding sites on the γ subunit, we expressed a human α2β2γ1 complex in Escherichia coli and purified it utilizing the polyhistidine tag at the N-terminus of the α2 subunit. […] However, it had not been co-expressed with an N-myristoyl transferase so would not have been N-myristoylated on the β2 subunit. The complex was expressed not only with the WT γ1 sequence but also with mutations affecting hydrophobic residues previously shown to be involved in binding of the adenine moieties of nucleotides at CBS1 (L129D/V130D), CBS3 (V276G/L277G) and CBS4 (I312G). All four complexes co-purified as heterotrimeric 1:1:1 complexes as expected, and were phosphorylated and activated equally well either by CaMKK2 or the LKB1: STRADα:MO25α complex (Supplementary Figure S2). For the studies described below we phosphorylated Thr172 using a GST-tagged CaMKK2 and repurified AMPK using size exclusion chromatography and a glutathione-Sepharose column, which remove CaMKK2.
Figure 4. Allosteric activation of WT and mutant human α2β2γ1 AMPK complex by AMP and ADP at three different concentrations of ATP. The α2β2γ1 complex was phosphorylated on Thr172 prior to assay using CaMKK2. The γ1 subunit was either (A/E): WT; (B/F): a CBS1 mutant (L129D/V130D); (C/G): a CBS3 mutant (V276G/L277G); (D/H): a CBS4 mutant (I312G). Results are means of duplicate assays ± SD; error bars are not shown if they were smaller than the symbols used for mean values. Assays and curve fitting were as in Figure 1 at either 0.2 mM (left panels) or 5 mM (right panels) ATP. Best-fit values for all parameters used to generate the curves are listed in Supplementary Table S1.
Sources of antibodies were as described: pThr172 (AMPK-α: Cell Signaling Technologies, Danvers, MA, U.S.A., Cat# 2535), AMPK-α2 [22]. Rat liver AMPK was purified as described previously. Plasmid encoding human (His)6-tagged AMPK (α2β2γ1, bacterially expressed) generated as in [23], was a gift from AstraZeneca, Cambridge, U.K. The L129D/V130D (CBS1), V276G/L277G (CBS3) and I312G (CBS4) mutations in the α2β2γ1 complex were generated using the Quikchange II site-directed mutagenesis kit (Agilent Technologies) and confirmed by DNA sequencing. Human GST-tagged α2 kinase domain (1–310), LKB1:STRAD-α:MO25-α complexes, GST-tagged CaMKK2 [26], and PPM1A (PP2Cα) were produced as described. Bacterially expressed heterotrimers were activated by phosphorylation of Thr172 by GST-tagged CaMKK2 in the presence of ATP, and CaMKK2 was subsequently removed by passage through glutathione-Sepharose. Human GST-tagged α2 kinase domain was activated in a similar manner except that human (His)6-tagged LKB1:STRAD-α:MO25-α complex was used and removed after activation via passage through a His-Trap column. Recombinant human 5′-nucleotidase, CD73, Cat # 5795-EN-01, was from R&D systems (Minneapolis, MN, U.S.A.).
AMPK assays measured the transfer of radioactivity from [γ-^33P]ATP to a peptide substrate, which was separated from unreacted ATP by binding to P81 paper. This assay was described previously except that we used [γ-^33P] rather than [γ-^32P]ATP. In some assays (specified in Figure legends) the concentration of ATP was increased from 0.2 to 1 or 5 mM ATP, with MgCl2 concentrations maintained at a constant 4.8 mM excess above the concentration of ATP [19]. Where allosteric activation by AMP or ADP was being studied, we used the SAMS peptide as substrate. For all other assays the AMARA peptide was used.

T1 sequence (P54619 whole entry I312G): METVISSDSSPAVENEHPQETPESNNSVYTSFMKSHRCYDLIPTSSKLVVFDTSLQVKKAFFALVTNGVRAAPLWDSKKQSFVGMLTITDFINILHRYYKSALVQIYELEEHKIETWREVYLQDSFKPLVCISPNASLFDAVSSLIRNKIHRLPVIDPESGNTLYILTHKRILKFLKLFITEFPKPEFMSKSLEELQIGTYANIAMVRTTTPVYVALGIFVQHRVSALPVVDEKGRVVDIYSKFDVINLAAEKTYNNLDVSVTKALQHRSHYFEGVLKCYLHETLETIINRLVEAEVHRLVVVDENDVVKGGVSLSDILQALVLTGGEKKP
T1 sequence (P54646 whole entry): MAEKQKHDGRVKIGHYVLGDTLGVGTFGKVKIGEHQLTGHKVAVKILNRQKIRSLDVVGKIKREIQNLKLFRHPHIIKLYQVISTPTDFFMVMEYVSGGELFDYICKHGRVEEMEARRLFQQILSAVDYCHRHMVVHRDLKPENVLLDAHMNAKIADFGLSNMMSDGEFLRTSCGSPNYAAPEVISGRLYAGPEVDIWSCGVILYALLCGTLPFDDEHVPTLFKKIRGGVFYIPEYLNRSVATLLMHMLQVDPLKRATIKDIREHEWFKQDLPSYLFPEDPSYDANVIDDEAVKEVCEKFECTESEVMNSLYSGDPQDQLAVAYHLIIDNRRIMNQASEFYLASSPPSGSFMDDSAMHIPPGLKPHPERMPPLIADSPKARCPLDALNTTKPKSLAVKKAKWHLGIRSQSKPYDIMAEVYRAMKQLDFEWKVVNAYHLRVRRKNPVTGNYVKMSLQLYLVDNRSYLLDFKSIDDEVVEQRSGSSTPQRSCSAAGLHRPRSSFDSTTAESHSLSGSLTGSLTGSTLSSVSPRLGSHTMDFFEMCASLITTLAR
T1 sequence (O43741 whole entry partner): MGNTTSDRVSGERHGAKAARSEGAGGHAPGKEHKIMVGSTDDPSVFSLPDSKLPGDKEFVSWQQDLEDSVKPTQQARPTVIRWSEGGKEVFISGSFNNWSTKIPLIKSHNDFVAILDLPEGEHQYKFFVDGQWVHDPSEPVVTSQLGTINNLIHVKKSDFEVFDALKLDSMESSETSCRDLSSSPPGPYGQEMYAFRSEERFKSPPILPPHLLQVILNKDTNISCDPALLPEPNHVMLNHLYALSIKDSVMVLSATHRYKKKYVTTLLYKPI

| Structure (SMILES) | increase of EC50 for activation relative to WT (α2β2γ1 CBS4 mutant vs WT, 0.2 mM ATP) [fold] | increase of EC50 relative to WT (α2β2γ1 CBS4 mutant vs WT, 5 mM ATP) | Activation (maximal) (0.2 mM ATP) | EC50 (0.2 mM ATP) [µM] | IC50 (0.2 mM ATP) [µM] | IC50/EC50 (0.2 mM ATP) | Activation (maximal) (5.0 mM ATP) | EC50 (5.0 mM ATP) [µM] | IC50 (5.0 mM ATP) [µM] | IC50/EC50 (5.0 mM ATP) |
| --- | --- | --- | --- | --- | --- | --- | --- | --- | --- | --- |
| Nc1ncnc2c1ncn2[C@@H]1O[C@H](COP(=O)(O)O)[C@@H](O)[C@H]1O [AMP] | 40 | 10- to 20 fold | 2.1 fold and 2.1 (2.0-2.1) fold | 38 | 3300 | 87 | 2.0- to 2.5 fold and 2.1 (1.9-2.4) fold | 280 | 28000 | 100 |
| Nc1ncnc2c1ncn2[C@@H]1O[C@H](COP(=O)(O)OP(=O)(O)O)[C@@H](O)[C@H]1O [ADP] |  |  | did not cause allosteric activation and none |  | 780 |  | essentially abolished allosteric activation and none |  | 31000 |  |
